In patent US8466202B2, “Anthracenedione compounds” (Sunten Phytotech Co., Ltd., priority 2006, dated 2013):
Where “and” joins values, the source holds several entries; their conditions need not be identical. Equal entries are not always repeated.

Tests used:
healthy male S.D. rats = assay: Feces production in rats given Rheum palmatum Linne extracts for three weeks (Example 2); type: in vivo, rat; settings: oral everyday, Rheum palmatum crude extract 500, Bisacodyl 1.75, Sennosides 3.55, STD03 180, STD05-1 12, STD05-2 24 mg/kg; for Water content: feces; for Pellet count / Wet Weight: total of the six rats in the group
Procedure: The laxative activities by Rheum palmatum Linne extracts were studied. A crude Rheum palmatum Linne extract and STD05 were obtained from SunTen Phytotech Co., Ltd. (Jhonghe City, Taiwan). Commercial available laxatives, Through® (Chung Mei Pharmaceutical Co., Ltd.; active ingredient: Sennosides 20 mg, as Sennosides A+B 12 mg, Lot. 009A 051) and Dulcolax® (Boehringer Ingelheim, Taiwan, Ltd.; active ingredient: Bisacodyl; Lot. 480-4942) were obtained from a pharmacy.
Forty-two healthy male S.D. rats (8 weeks old; National Laboratory Animal Center, Taiwan) were divided into seven groups (six in each) and tested for the laxative activity by Rheum palmatum Linne extracts. The rats in one group were not fed with any extract or drug and used as negative controls. The rats in the second and third group were given Sennosides (3.55 mg/kg) and Bisacodyl (1.75 mg/kg), respectively, and used as positive controls. The Rats in the other four groups were given Rheum palmatum Linne crude extract (500 mg/kg), filtered crude extract STD03 (180 mg/kg), and STD05 (STD05-1: 12 mg/kg and STD05-2: 24 mg/kg), respectively. All substances were administered orally everyday for three weeks.
The experiments were carried out under conditions in which temperature, humidity, and lighting were all controlled. Each rat was fed standard rat food and water ad libitum in housing that provided a 12-hour light/dark cycle. The rats were divided into seven groups according to the body weights.
The first part of the experiment studied the effect of the above-mentioned extracts on feces production. During the three-week period, any rat that appeared dying was euthanized, dissected, and studied to check for any illness or injures. Any complications or illness were analyzed by H&E stains to determine the cause of death and to allow for dosage reconsiderations for future experiments.
During this period, the body weights of the rats were weighed each day and recorded. Feces of each rat were studied three times during the period for any unusual observations. Specifically, the amounts of feces were weighed on Days 11, 15, 18, and 21. During observation, each rat was placed in a metabolic cage. Feces were collected every twenty-four hours. The number of collected feces pellets was counted, and the pellets' shapes and colors were evaluated. After weighing the moist feces, they were dried in an oven at 100° C. for twenty-four hours. The water content from the feces was calculated according to the following formula: Water content percentage=[(wet weight−dry weight)/wet weight]×100%.
Intestine motility data were expressed as mean±SD. Data were analyzed using the one-way ANOVA method. For comparison within the groups, a Post hoc Comparison was applied. In both feces production and intestine motility analyses, p<0.05 indicates significant differences. For the feces production tests, the data for each group and each time point represent the total wet weight or pellet count of the six rats in the group.

[1] = Body weight of rats over the 10-day period (Example 3); type: in vivo, rat; parameters: Body weight Difference: unit not given here; settings: Sennosides 3.35 mg/kg/day; for Body weight Difference, Mean / Body weight End Day 10, Mean: group mean; for Body weight Difference, Mean / Body weight Difference: Day 10 minus Day 1; for Body weight Difference / Body weight End Day 10: individual rats
How it was run: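 Healthy male S.D. rats, 6 per treatment, given test substances daily at 4–24 mg/kg/day (dose per substance), with untreated and 3.35 mg/kg/day sennoside controls. Body weight recorded each day over 10 days; standard food and water ad libitum, 12-hour light/dark cycle.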

[2] = Group I, STD05 8 mg/kg, ARE 8 mg/kg, Aloe-emodin 4 mg/kg, Rhein 4 mg/kg
[3] = Group II, STD05 24 mg/kg, ARE 24 mg/kg, Chrysophanol 4 mg/kg, Emodin 4 mg/kg

In the case of Sennosides, the Water content (healthy male S.D. rats; Day 11) is reported as 52.70%, the Pellet count (healthy male S.D. rats; Day 11) is reported as 121 and the “Wet Weight” value (healthy male S.D. rats; Day 11) is reported as 29.21 g. The Water content (healthy male S.D. rats; Day 15) was 60.40%, the Pellet count (healthy male S.D. rats; Day 15) was 119 and the “Wet Weight” value (healthy male S.D. rats; Day 15) was 30.95 g. For the same substance, the Water content (healthy male S.D. rats; Day 18) was 47.30%, the Pellet count (healthy male S.D. rats; Day 18) was 106 and the “Wet Weight” value (healthy male S.D. rats; Day 18) was 23.90 g. For the same substance, the Water content (healthy male S.D. rats; Day 21) was 44.73%, the Pellet count (healthy male S.D. rats; Day 21) was 123 and the “Wet Weight” value (healthy male S.D. rats; Day 21) was 27.80 g. For the same substance, the Body weight Difference, Mean [1, 2] was 53 g, the Body weight End Day 10, Mean [1, 2] was 338 g and the “Body weight Difference” value [1, 2] was 45 (2×) and 60 and 35 and 65 and 70. The “Body weight End Day 10” value [1, 2] was 325 and 330 and 350 (2×) and 310 and 365, the Body weight Difference, Mean [1, 3] was 41 g and the Body weight End Day 10, Mean [1, 3] was 398 g. The “Body weight Difference” value [1, 3] was 30 and 45 and 40 (2×) and 35 and 55 and the “Body weight End Day 10” value ([1]; Group II, STD05 24 mg/kg, ARE 24 mg/kg, Chrysophanol 4 mg/kg, Emodin 4 mg/kg, in g (unit assumed)) was 370 and 395 and 405 and 360 and 410 and 445.
